The test system of experiment [1] is HepG2 (human hepatocellular carcinoma). Kind of experiment: MTT assay, inhibition of HepG2 cell proliferation. Format: cell-based. As for the experimental part: Preliminary in vitro screening results of the title compounds for antitumor activity against HepG2 (human hepatocellular carcinoma) and human normal hepatocytes (LO2) were determined by MTT assay (thiazolyl blue salt colorimetry) (see Figure 1 and Figure 2). […]
All analyses were carried out with SPSS 19.0 software (SPSS, Chicago, IL, USA). […]
The measurement data material of the experimental were described by x±s. Two samples were compared with the t test. The difference was significant statistically (p < 0.05).
MTT assay detect cell proliferation
MTT assay was used to determine the inhibitory effect on the proliferation of HepG2 cells of levopimaric acid. Compound 4 and levopimaric acid were combined with three groups below. The cells in the logarithmic growth phase were inoculated into 96-well culture plates at 3.5×10^3 cells/well, 0.2 ml per well, and incubated for 72 h with different concentrations of levopimaric acid. Then, we continually cultured it for 4 h after mixing fresh MTT working solution 20 μL (final concentration was 0.5 mg/mL), and carefully discarded the supernatant, added […] of DMSO per well and shook up. The absorbance (A) at the wavelength of 490 nm was measured by a microplate reader. The cell proliferation inhibition rate was calculated according to the following formula=[(negative control group A value - blank group A value) - (experimental group A value - blank group A value)]/ (Negative control group A value - blank group A value) × 100%.
Table S1 Compound 4 and levopimaric acid anti-HepG2 by single drug.
Concentration 4 Concentration Levopimaric acid
/μM Inhibitory rate/% Inhibitory rate/% /μM […]
Detection of cell proliferation by MTT
MTT assay was used to determine the inhibitory effect of the sample on the proliferation of HepG2 cells. The tumor cells of logarithmic growth stage were inoculated with 3.5×10^3/well in 96 well culture plate. 0.2 ml/pore system was cultured for 72 h with different concentrations of samples. Then 20 μL (final concentration 0.5 mg/mL) of MTT were added to each pore for 4 h. The supernatant was carefully adsorbed, and 0.15 mL DMSO was added to each pore, and oscillatory mixing was carried out. The absorbance (A) value at 490 nm wavelength was measured by enzyme labeling instrument.
The inhibition rate of cell proliferation was calculated as follows: [(A value of negative control group - A value of blank group) - (A value of experimental group A value of blank group)]/(negative pair […]
(§1) Firstly, sucked out the original medium when the cell coverage in the culture bottle had reached 80% ~ 90%. Secondly, added appropriate trypsin (0.25%) to digest the cells for 1~2 min until they became round. Mixed the equal volume of serum-containing medium to terminate the digestion.
Thirdly, use pipette to percuss cells and make them suspend. Then, sucked the cells into a 15 mL centrifuge tube and centrifuge them for 5 min. At last, dropped the supernatant, add 1~2 mL medium to suspend the cells, and cultivated them in the culture bottle.
The first step was to add suitable trypsin digestion cells and collected the cell suspension.
Centrifuged the suspension at 1000 rpm for 5 min in the tube, and then abandoned the supernatant.
Secondly, added cryoprotectant to the cell sediment and mixed them lightly until the cell density was 1×106~1×10^7/ml. Later, divided them into 1~1.5 ml per tube, tightened the cap and made a mark on surface including the cell code and the freezing date. In the end, cooled the cells in following order: room temperature→ 4℃ (20 min) → the freezer (30 min) → low temperature refrigerator (-30℃ for 1 h) →gaseous nitrogen (30 min) →the liquid nitrogen.
(§2) Cell proliferation measured by MTT
First of all, digested the cells and counted them. Added 100 μL cell suspension (3×10^4 /ml) into each hole of the 96 holes cell culture plate. Secondly, placed the 96 holes cell culture plate in a 5% CO2 culture box for 24 h at 37℃. Then, used the medium to dilute the drug into the desired working fluid […]
Background: Tetrazolium assays rely on reduction of a dye to a coloured formazan, in cell work by metabolically active cells.

Experiment [2] has as its system human normal hepatocytes (LO2). Kind of experiment: MTT assay, inhibition (toxicity) of LO2 cell proliferation. Format: cell-based. The following applies: Hepatocyte, 72 h, read-out: inhibitory activity against LO2, IC50. On the procedure: Preliminary in vitro screening results of the title compounds for antitumor activity against HepG2 (human hepatocellular carcinoma) and human normal hepatocytes (LO2) were determined by MTT assay (thiazolyl blue salt colorimetry) (see Figure 1 and Figure 2).
as §1
Thirdly, use pipette to percuss cells and make them suspend. Then, sucked the cells into a 15 mL centrifuge tube and centrifuge them for 5 min. At last, dropped the supernatant, add 1~2 mL medium to suspend the cells, and cultivated them in the culture bottle. […]
as §2
First of all, digested the cells and counted them. Added 100 μL cell suspension (3×10^4 /ml) into each hole of the 96 holes cell culture plate. Secondly, placed the 96 holes cell culture plate in a 5% CO2 culture box for 24 h at 37℃. Then, used the medium to dilute the drug into the desired working fluid concentration, added 100 μL per hole to the corresponding drug medium, and established a negative control group as well as a positive control group (paclitaxel, 20 ug/ml). Next, placed 96 holes cell culture plate at 37℃ and cultivated the cells in a 5% CO2 incubator for 72 h. After treating 96 holes board with MTT staining, estimated the OD value: a. Added 20 μL MTT (5 mg/ml) per hole, and cultivated cells in the box for 4 h. b. Discarded the supernatant, added 150 μL DMSO in each hole, and mixed them gently after treatment with shaker for 10 min. c. Under 490nm ultraviolet wavelength, read the OD value from ELISA.
Finally, figured up the inhibition rate of each group
*The inhibition rate (%) = (negative control group OD value - experimental group OD value) / negative control group OD value ×100%. […]
The next day, joined the corresponding drug-containing medium after the cells adhered. And established the negative control group at the same time. After 72 h, use 0.25% pancreatin (not contain EDTA) to digest the cells. Thirdly, applied PBS to scrub the cells (centrifuge them at 2000 rpm for 5min), and collected 5×10^5 cells. Then, used a volume fraction of 70% ethanol to fix the single cell suspension for 2 h (or overnight), and stored it at 4℃. Before washing, employed PBS to remove the fixative solution (if needed, filter cell suspension through 200 mesh). Added […] RNase A, and made it in water bath at 37℃ for 30 min. Later, placed it at 4℃ for 30 min without light. […]
Detection of apoptosis by Annexin-V FITC/PI double staining
Firstly, inoculated the logarithmic growth cells into the six-hole plate. […]

The subject of another experiment is LO2. Also on record: method as in earlier work. The following applies: LO2, 24 h; cited from earlier work.
The mark [3] stands for this setting: Homo sapiens, HepG2, 72 h, 72 h, MTT, read-out: inhibitory activity against HepG2, IC50.

This is an account of results in PMC6214004, “Novel C15 Triene Triazole, D-A Derivatives Anti-HepG2, and as HDAC2 Inhibitors: A Synergy Study” (International Journal of Molecular Sciences, 2018).

Values after ≈ are worked out from the molar mass of the structure shown. Like-named read-outs stand apart in the source and are kept apart here. A value given as a limit tells only on which side of the number the result lay.

As a reminder, the IC50 is the concentration that gives 50% inhibition. Regarding `C/C=C\C=C\C/C=C\CCCCCCCc1cccc(O)c1O` [Compound 1, triene urushiol], the IC50 is < 50 µM in experiment [1] (Homo sapiens, HepG2, 72 h, read-out: inhibitory activity against HepG2, IC50, 72 h, MTT); 28.6 µM in experiment [1] (read-out: inhibitory activity against HepG2, IC50, 72 h, MTT); 66.1 µM in experiment [2].
Turning to `CC(C)C1=CC[C@H]2C(=C1)CC[C@@H]1[C@]2(C)CCC[C@@]1(C)C(=O)O` [Compound 5, Levopimaric Acid], the IC50 was 39.5 µM in experiment [1] (setting [3]) and > 200 µM in experiment [2]. Further, the inhibition at 0.585 µM in experiment [1] (Homo sapiens, HepG2, 0.585 μM, 72 h, read-out: Inhibitory rate/%, anti-HepG2 by single drug) worked out at 4.12%. In experiment [1] (Homo sapiens, HepG2, 1.171 μM, 72 h, read-out: Inhibitory rate/%, anti-HepG2 by single drug), the inhibition at 1.171 µM was determined as 5.45%. In addition, in experiment [1] (Homo sapiens, HepG2, 2.343 μM, 72 h, read-out: Inhibitory rate/%, anti-HepG2 by single drug), the inhibition at 2.343 µM is 9.45%. Also, the inhibition at 4.687 µM in experiment [1] (Homo sapiens, HepG2, 4.687 μM, 72 h, read-out: Inhibitory rate/%, anti-HepG2 by single drug) is 13.8%. Besides, in experiment [1] (Homo sapiens, HepG2, 9.375 μM, 72 h, read-out: Inhibitory rate/%, anti-HepG2 by single drug), the inhibition at 9.375 µM came to 32.1%. Also, the inhibition at 18.75 µM in experiment [1] (Homo sapiens, HepG2, 18.75 μM, 72 h, read-out: Inhibitory rate/%, anti-HepG2 by single drug) was 44.6%. In experiment [1] (Homo sapiens, HepG2, 37.5 μM, 72 h, read-out: Inhibitory rate/%, anti-HepG2 by single drug), the inhibition at 37.5 µM was found to be 47.2%. For the same molecule, the inhibition at 75 µM in experiment [1] (Homo sapiens, HepG2, 75 μM, 72 h, read-out: Inhibitory rate/%, anti-HepG2 by single drug) is 73.4%. Moreover, the inhibition at 150 µM in experiment [1] (Homo sapiens, HepG2, 150 μM, 72 h, read-out: Inhibitory rate/%, anti-HepG2 by single drug) stood at 91.5%.
For `CC1C=CC(C/C=C\CCCCCCCc2cccc(O)c2O)C2(F)C(=O)OC(=O)C12F` (stereo not shown) [Compound 15], the IC50 was 29.4 µM in experiment [1] (setting [3]) and > 200 µM in experiment [2].
As for `CC1C=CC(C/C=C\CCCCCCCc2cccc(O)c2O)C2(Cl)C(=O)OC(=O)C12Cl` (stereo not shown) [Compound 16], the IC50 in experiment [1] (Homo sapiens, HepG2, 72 h, MTT, read-out: inhibitory activity against HepG2, IC50) was 23.9 µM; in experiment [2], > 200 µM.
For `CC(=O)O[C@H]1C(=O)[C@@]2(C)[C@H]([C@H](OC(=O)c3ccccc3)[C@]3(O)C[C@H](OC(=O)[C@H](O)[C@@H](NC(=O)c4ccccc4)c4ccccc4)C(C)=C1C3(C)C)[C@]1(OC(C)=O)CO[C@@H]1C[C@@H]2O` [paclitaxel], the “IC50 on LO2” value in the experiment with LO2 was 28.5 µg/mL (≈ 33.4 µM).
